Experimental data reported in patent US20200289434A1, “RAPIDLY IMPROVING ENDOTHELIAL FUNCTION, REDUCING ARTERIAL STIFFNESS AND REVERSING CALCIFICATION OF BLOOD VESSELS BY ADMINISTERING VITAMIN K” (KAYDENCE PHARMA AS, priority 2019, published 2020).
Several values for one entry are separate records, joined by “and”; a condition that tells them apart may be missing. Identical values can stand only once.

Tests used:
ApoE/LDLR−/− mice = assay: Example 2: MRI-based assessment of NO-dependent vasodilatation in BCA and LCA after acetylcholine; assay type: in vivo; details: two months, 6-month old mice
Description: Endpoint assays: Magnetic resonance imaging (MRI)-based assessment of nitric oxide (NO)-dependent vasodilatation in brachiocephalic (BCA) and left common carotid artery (LCA) after acetylcholine (Ach) administration—by MRI 9.4T scanner, total time of measurements: 114 h (1.5 h per animal), acetylcholine (Ach, 16.6 mg/kg b.w.)
Studies were performed on 4-month old female ApoE/LDLR−/− mice, the model initially described by Ishibashi S, Herz J, Maeda N, Goldstein J, Brown M. The two-receptor model of lipoprotein clearance: tests of the hypothesis in “knockout” mice lacking the low density lipoprotein receptor, apolipoprotein E, or both proteins. Proc Natl Acad Sci USA 1994; 10:4431-5., and extensively characterized in previous studies, [see Kostogrys R B, Franczyk-Zarow M, Gasior-Glogowska M, Kus E, Jasztal A, Wrobel T P, et al. Anti-atherosclerotic effects of pravastatin in brachiocephalic artery in comparison with en face aorta and aortic roots in ApoE/LDLR−/− mice. Pharmacol Reports 2017; 69:112-8. doi:10.1016/j.pharep.2016.09.014; Tyrankiewicz U, Skorka T, Orzylowska A, Jablonska M, Jasinski K, Jasztal A, et al. Comprehensive MRI for the detection of subtle alterations in diastolic cardiac function in apoE/LDLR−/− mice with advanced atherosclerosis. NMR Biomed 2016; 29:833-40. doi:10.1002/nbm.3524; Mateuszuk L, Jasztal A, Maslak E, Gasior-Glogowska M, Baranska M, Sitek B, et al. Antiatherosclerotic Effects of 1-Methylnicotinamide in Apolipoprotein E/Low-Density Lipoprotein Receptor-Deficient Mice: A Comparison with Nicotinic Acid. J Pharmacol Exp Ther 2016; 356:514-24. doi:10.1124/jpet.115.228643; Wrobel T P, Marzec K M, Chlopicki S, Maślak E, Jasztal A, Franczyk-Żarów M, et al., Effects of Low Carbohydrate High Protein (LCHP) diet on atherosclerotic plaque phenotype in ApoE/LDLR−/− mice: FT-IR and Raman imaging. […] End-diastolic volumes of BCA and LCA were analyzed using ImageJ software (1.46r NIH Bethesda, Md., USA) and scripts written in Matlab (MathWorks, Natick, Mass., USA) (FIG. 1A).

[1] = system: macrophages in BCA atherosclerotic plaque; assay: Example 3 second part: immunohistochemical detection of macrophages (Mac-3) in atherosclerotic plaque in BCA; assay type: in vivo, mice; details: high dose (10 mg/kg b.w./day)
Description: For detection of macrophages in BCA, atherosclerotic plaque immunohistochemical staining was performed. After heat-induce epitope retrieval, with 10 mM sodium citrate buffer (pH 6), deparaffinised sections were blocked with 5% normal goat serum and 1% hydrogen peroxide. […] Next, sections were treated with biotinylated secondary antibody, followed by horseradish peroxidase-conjugated streptavidin. 3,3′-diaminobenzidine (DAB) as a chromogen was used for visualization of antibody-antigen interaction. Sections were counterstained with hematoxylin. Intensity of Mac-3 staining was estimated manually considering quantity and intensity of positive reactions. Final results are shown as a mean from two independent analysis.

[2] = Example 3 second part: lipid profile, liver enzymes and blood count; details: eight weeks
[3] = mouse, in vivo
[4] = system: thrombin generation in platelet-poor mice plasma; assay: Example 3 second part: thrombin generation by calibrated automated thrombogram (CAT); assay type: in vivo; details: eight weeks, either dose
Description: Thrombin generation was measured in platelet-poor mice plasma using calibrated automated thrombography (CAT) technique as described in Hemker H C, Giesen P, Al Dieri R, Regnault V, de Smedt E, Wagenvoord R, et al. Calibrated automated thrombin generation measurement in clotting plasma. Pathophysiol Haemost Thromb 2003; 33:4-15. doi:71636. Thrombin generation was activated by mixing 21 μL of diluted plasma (1:1 with BSA5 buffer) with 7 pIL of fluorogenic substrate (Z-Gly-Gly-Arg-AMC, 16.6 mM) and 14 μL of trigger solution containing phospholipids, tissue factor and CaCl2) (4 μM, […] and 16.6 mM, respectively). In the calibration wells, the 14 μL of reagents were replaced with calibrator (102 nM). Immediately after the activation, 5 μL of the mixture was pipetted on paper disks in a flat bottom 96-well polystyrene plate and covered with 40 μL of mineral oil. Fluorescent signals were measured using the Fluoroskan Ascent software (Thermo Labsystems, Helsinki, Finland) and transformed into thrombin concentration as described in Hemker H C, Kremers R. Data management in Thrombin Generation. Thromb Res 2013; 131:3-11. doi:10.1016/j.thromres.2012.10.011. The parameters analyzed included endogenous thrombin potential (ETP), peak thrombin concentration (peak), and lag time.

## CC(C)=CCC/C(C)=C/CC/C(C)=C/CC/C(C)=C/CC/C(C)=C/CC/C(C)=C/CC/C(C)=C/CC1=C(C)C(=O)c2ccccc2C1=O [MK-7, menaquinone-7]
ApoE/LDLR−/− mice; high dose 10 mg/kg b.w./day
  volume change of BCA after Ach injection: 3.12%
  volume change of LCA after Ach injection: 4.45%
ApoE/LDLR−/− mice; low dose 0.03 mg/kg b.w./day, listed as vitamin MK-7, 0.03 mg/kg/day
  volume change of LCA after Ach injection: ~−3% and −3.92%
[1]
  intensity of MAC-3 staining: 139±29
[2]; 0.03 mg/kg
  MPV: 5.20 ± 0.33
[2]; 10 mg/kg
  MPV: 4.97 ± 0.19
[3]
  lipid profile, liver enzymes concentration, blood cell count: did not affect
[4]
  thrombin generation: did not affect
